Measured values taken from PMC7530128 (Journal of the American Chemical Society, 2020).

T1: CblD (Homo sapiens, UniProt Q9H3L0)
T1 sequence (Q9H3L0 1-296): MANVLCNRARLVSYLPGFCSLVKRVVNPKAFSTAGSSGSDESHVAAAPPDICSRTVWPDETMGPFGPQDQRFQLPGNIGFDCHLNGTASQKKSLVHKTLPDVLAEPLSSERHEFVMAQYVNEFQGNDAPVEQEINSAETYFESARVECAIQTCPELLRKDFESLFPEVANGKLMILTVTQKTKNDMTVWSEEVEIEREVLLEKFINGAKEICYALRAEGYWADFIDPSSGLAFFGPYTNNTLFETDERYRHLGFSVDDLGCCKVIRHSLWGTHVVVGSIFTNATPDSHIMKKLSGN

T2: CblC (Homo sapiens, UniProt Q9Y4U1)
T2 chain: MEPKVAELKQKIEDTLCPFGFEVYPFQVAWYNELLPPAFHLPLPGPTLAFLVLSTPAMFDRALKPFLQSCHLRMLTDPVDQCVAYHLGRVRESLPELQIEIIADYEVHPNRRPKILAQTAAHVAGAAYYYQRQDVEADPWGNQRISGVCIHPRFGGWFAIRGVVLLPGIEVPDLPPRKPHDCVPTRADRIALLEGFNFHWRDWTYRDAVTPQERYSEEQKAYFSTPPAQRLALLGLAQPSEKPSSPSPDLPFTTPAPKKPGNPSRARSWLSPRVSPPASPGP

B1: CblD (protein)
chain: SDESHVAAAPPDICSRTVWPDETMGPFGPQDQRFQLPGNIGFDCHLNGTASQKKSLVHKTLPDVLAEPLSSERHEFVMAQYVNEFQGNDAPVEQEINSAETYFESARVECAIQTCPELLRKDFESLFPEVANGKLMILTVTQKTKNDMTVWSEEVEIEREVLLEKFINGAKEICYALRAEGYWADFIDPSSGLAFFGPYTNNTLFETDERYRHLGFSVDDLGCCKVIRHSLWGTHVVVGSIFTNATPDSHIMKKLSGN
modifications: cobalamin

Legend:
CblD = biological target: T1, CblD; assay: UV-visible titration; assay type: binding
CblC = biological target: T2, CblC; assay: ITC

Molecule | Kd (CblD) [nM] | Kd (CblC) [nM]
H2OCbl | 1000 ± 400 | –
B1 | – | 40
